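Step 1: Grow cells in 96-well plates. Step 2: Expose to compound for 48 hours at 5 concentrations. Step 3: Interpolate endpoints linearly; if unreached, use highest concentration. GI50 = concentration required for 50% inhibition of growth. TGI marks complete inhibition of growth.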
How the values were obtained:
Experiment in all cases: inhibition of tumour cell growth, NCI panel, 48 h
NCI/ADR-RES ovarian = system: NCI/ADR-RES ovarian
UACC-62 melanoma = system: UACC-62 melanoma
HCT-116 colon = system: HCT-116 colon
OVCAR-5 ovarian = system: OVCAR-5 ovarian
OVCAR-8 ovarian = system: OVCAR-8 ovarian
RXF 393 renal = system: RXF 393 renal
RPMI-8226 leukemia = system: RPMI-8226 leukemia
OVCAR-3 ovarian = system: OVCAR-3 ovarian
TK-10 renal = system: TK-10 renal
HT29 colon = system: HT29 colon
786-0 renal = system: 786-0 renal
UO-31 renal = system: UO-31 renal
SF-539 CNS = system: SF-539 CNS
K-562 leukemia = system: K-562 leukemia
MOLT-4 leukemia = system: MOLT-4 leukemia
NCI-H23 lung = system: NCI-H23 lung
HOP-62 NSCLC = system: HOP-62 NSCLC
SR leukemia = system: SR leukemia
SK-MEL-5 melanoma = system: SK-MEL-5 melanoma
PC-3 prostate = system: PC-3 prostate
SN12C renal = system: SN12C renal
M14 melanoma = system: M14 melanoma
SK-MEL-28 melanoma = system: SK-MEL-28 melanoma
EKVX NSCLC = system: EKVX NSCLC
A549 NSCLC = system: A549 NSCLC
HOP-92 NSCLC = system: HOP-92 NSCLC
NCI-H522 lung = system: NCI-H522 lung
SNB-75 CNS = system: SNB-75 CNS
SW-620 colon = system: SW-620 colon
NCI-H226 lung = system: NCI-H226 lung
HL-60(TB) leukemia = system: HL-60(TB) leukemia
HS 578T breast = system: HS 578T breast
NCI-H460 lung = system: NCI-H460 lung
SF-295 CNS = system: SF-295 CNS
DU-145 prostate = system: DU-145 prostate
MDA-MB-231 breast = system: MDA-MB-231 breast
MDA-MB-435 = system: MDA-MB-435
SK-OV-3 ovarian = system: SK-OV-3 ovarian
IGROV1 ovarian = system: IGROV1 ovarian
BT-549 breast = system: BT-549 breast
KM12 colon = system: KM12 colon
UACC-257 melanoma = system: UACC-257 melanoma
A498 renal = system: A498 renal
CCRF-CEM leukemia = system: CCRF-CEM leukemia
OVCAR-4 ovarian = system: OVCAR-4 ovarian
ACHN renal = system: ACHN renal
MCF7 breast = system: MCF7 breast
MALME-3M melanoma = system: MALME-3M melanoma
SNB-19 CNS = system: SNB-19 CNS
SF-268 CNS = system: SF-268 CNS
HCC-2998 colon = system: HCC-2998 colon
LOX IMVI melanoma = system: LOX IMVI melanoma
HCT-15 colon = system: HCT-15 colon
U251 CNS = system: U251 CNS
COLO 205 colon = system: COLO 205 colon

SMILES: CC[C@H](C)[C@H](NC(=O)c1ncccn1)C(=O)N(C)[C@H](C[C@@H](OC(C)=O)c1nc(C(=O)N[C@@H](Cc2ccccc2)C[C@H](C)C(=O)OC)cs1)C(C)C
- GI50 (NCI/ADR-RES ovarian): 11.7 µM
- TGI (NCI/ADR-RES ovarian): > 25 µM
- GI50 (UACC-62 melanoma): 848 nM
- TGI (UACC-62 melanoma): > 25 µM
- GI50 (HCT-116 colon): 929 nM
- TGI (HCT-116 colon): > 25 µM
- GI50 (OVCAR-5 ovarian): 5.07 µM
- TGI (OVCAR-5 ovarian): > 25 µM
- GI50 (OVCAR-8 ovarian): 2250 nM
- TGI (OVCAR-8 ovarian): > 25 µM
- GI50 (RXF 393 renal): 809 nM
- TGI (RXF 393 renal): 20.6 µM
- GI50 (RPMI-8226 leukemia): 793 nM
- TGI (RPMI-8226 leukemia): 3.98 µM
- GI50 (OVCAR-3 ovarian): 796 nM
- TGI (OVCAR-3 ovarian): > 25 µM
- GI50 (TK-10 renal): 16.6 µM
- TGI (TK-10 renal): > 25 µM
- GI50 (HT29 colon): 893 nM
- TGI (HT29 colon): > 25 µM
- GI50 (786-0 renal): 1720 nM
- TGI (786-0 renal): > 25 µM
- GI50 (UO-31 renal): 6.01 µM
- TGI (UO-31 renal): > 25 µM
- GI50 (SF-539 CNS): 2530 nM
- TGI (SF-539 CNS): 11.9 µM
- GI50 (K-562 leukemia): 935 nM
- TGI (K-562 leukemia): > 25 µM
- GI50 (MOLT-4 leukemia): 2390 nM
- TGI (MOLT-4 leukemia): > 25 µM
- GI50 (NCI-H23 lung): 5.4 µM
- TGI (NCI-H23 lung): > 25 µM
- GI50 (HOP-62 NSCLC): 1730 nM
- TGI (HOP-62 NSCLC): > 25 µM
- GI50 (SR leukemia): 213 nM
- TGI (SR leukemia): > 25 µM
- GI50 (SK-MEL-5 melanoma): 848 nM
- TGI (SK-MEL-5 melanoma): 4.77 µM
- GI50 (PC-3 prostate): 1460 nM
- TGI (PC-3 prostate): > 25 µM
- GI50 (SN12C renal): 2810 nM
- TGI (SN12C renal): > 25 µM
- GI50 (M14 melanoma): 1130 nM
- TGI (M14 melanoma): > 25 µM
- GI50 (SK-MEL-28 melanoma): 3.51 µM
- TGI (SK-MEL-28 melanoma): > 25 µM
- GI50 (EKVX NSCLC): 4.62 µM
- TGI (EKVX NSCLC): > 25 µM
- GI50 (A549 NSCLC): 6.23 µM
- TGI (A549 NSCLC): > 25 µM
- GI50 (HOP-92 NSCLC): 4.36 µM
- TGI (HOP-92 NSCLC): > 25 µM
- GI50 (NCI-H522 lung): 1010 nM
- TGI (NCI-H522 lung): 7.37 µM
- GI50 (SNB-75 CNS): 768 nM
- TGI (SNB-75 CNS): > 25 µM
- GI50 (SW-620 colon): 896 nM
- TGI (SW-620 colon): > 25 µM
- GI50 (NCI-H226 lung): 5.45 µM
- TGI (NCI-H226 lung): > 25 µM
- GI50 (HL-60(TB) leukemia): 588 nM
- TGI (HL-60(TB) leukemia): 1260 nM
- GI50 (HS 578T breast): 1250 nM
- TGI (HS 578T breast): > 25 µM
- GI50 (NCI-H460 lung): 925 nM
- TGI (NCI-H460 lung): > 25 µM
- GI50 (SF-295 CNS): 2110 nM
- TGI (SF-295 CNS): 16.7 µM
- GI50 (DU-145 prostate): 1780 nM
- TGI (DU-145 prostate): > 25 µM
- GI50 (MDA-MB-231 breast): 1400 nM
- TGI (MDA-MB-231 breast): 10.9 µM
- GI50 (MDA-MB-435): 393 nM
- TGI (MDA-MB-435): 1080 nM
- GI50 (SK-OV-3 ovarian): 5.51 µM
- TGI (SK-OV-3 ovarian): > 25 µM
- GI50 (IGROV1 ovarian): 1380 nM
- TGI (IGROV1 ovarian): > 25 µM
- GI50 (BT-549 breast): 1470 nM
- TGI (BT-549 breast): 11.7 µM
- GI50 (KM12 colon): 1040 nM
- TGI (KM12 colon): > 25 µM
- GI50 (UACC-257 melanoma): 2380 nM
- TGI (UACC-257 melanoma): > 25 µM
- GI50 (A498 renal): 2700 nM
- TGI (A498 renal): 17.6 µM
- GI50 (CCRF-CEM leukemia): 853 nM
- TGI (CCRF-CEM leukemia): 7.19 µM
- GI50 (OVCAR-4 ovarian): 4.42 µM
- TGI (OVCAR-4 ovarian): > 25 µM
- GI50 (ACHN renal): 4.07 µM
- TGI (ACHN renal): > 25 µM
- GI50 (MCF7 breast): 924 nM
- TGI (MCF7 breast): > 25 µM
- GI50 (MALME-3M melanoma): 1290 nM
- TGI (MALME-3M melanoma): > 25 µM
- GI50 (SNB-19 CNS): 2320 nM
- TGI (SNB-19 CNS): > 25 µM
- GI50 (SF-268 CNS): 2210 nM
- TGI (SF-268 CNS): > 25 µM
- GI50 (HCC-2998 colon): 6.48 µM
- TGI (HCC-2998 colon): > 25 µM
- GI50 (LOX IMVI melanoma): 1460 nM
- TGI (LOX IMVI melanoma): > 25 µM
- GI50 (HCT-15 colon): 1390 nM
- TGI (HCT-15 colon): > 25 µM
- GI50 (U251 CNS): 2390 nM
- TGI (U251 CNS): > 25 µM
- GI50 (COLO 205 colon): 1010 nM
- TGI (COLO 205 colon): 4.97 µM

From PubChem BioAssay (NCI)
